Legend:
Assay type in all cases: biochemical
[1] = target: p110α/p85α (Homo sapiens, UniProt P42336); experiment: Transcreener KINASE Assay, kinase inhibition of p110α/p85α; details: for PI3Kα IH % @ 1 uM: 1 uM test compound; for IC50: read-out: PI3Kα IC50
Experimental: PI3K kinases including p110α/p85α, p110δ/p85α and p110γ are purchased from Invitrogen, and p110β/p85α is from Millipore.
Primary screening data and IC50 values are measured using Transcreener™ KINASE Assay (Bellbrook, Catalog #3003-10K). […] It is a universal, homogenous, high throughput screening (HTS) technology using a far-red, competitive fluorescence polarization immunoassay based on the detection of ADP to monitor the activity of enzymes that catalyze group transfer reactions. Briefly, the Transcreener KINASE Assay is designed as a simple two-part, endpoint assay.
In the first step, the 25 ul kinase reaction is performed by preparing a reaction mixture containing 5 ul test compound (2% DMSO final concentration), 10 ul kinase, buffer (50 mM HEPES, 100 mM NaCl, 1 mM EGTA, 0.03% CHAPS, 3 mM MgCl2, and freshly supplemented 1 mM DTT), and 10 ul 30 uM PIP2/10 uM ATP. The plate is sealed and incubated for 80 min at room temperature. Next, 25 ul ADP detection mix is added per well. The plate is sealed again and incubated for 60 min at room temperature, and then measure fluorescence polarization by Tecan Infinite F500 Reader.
Data is analyzed and IC50s are generated using the add-in software for Microsoft Excel, Xlfit™ (version 2.0). IH %=(ADP amount under 2% DMSO-ADP amount under test compound)/ADP amount under 2% DMSO.

[2] = target: p110β/p85α (Homo sapiens, UniProt P42338); experiment: Transcreener KINASE Assay, kinase inhibition of p110β/p85α; details: for PI3Kβ IH % @ 1 uM: 1 uM test compound; for IC50: read-out: PI3Kβ IC50
Chain of p110β/p85α (P42338 whole entry): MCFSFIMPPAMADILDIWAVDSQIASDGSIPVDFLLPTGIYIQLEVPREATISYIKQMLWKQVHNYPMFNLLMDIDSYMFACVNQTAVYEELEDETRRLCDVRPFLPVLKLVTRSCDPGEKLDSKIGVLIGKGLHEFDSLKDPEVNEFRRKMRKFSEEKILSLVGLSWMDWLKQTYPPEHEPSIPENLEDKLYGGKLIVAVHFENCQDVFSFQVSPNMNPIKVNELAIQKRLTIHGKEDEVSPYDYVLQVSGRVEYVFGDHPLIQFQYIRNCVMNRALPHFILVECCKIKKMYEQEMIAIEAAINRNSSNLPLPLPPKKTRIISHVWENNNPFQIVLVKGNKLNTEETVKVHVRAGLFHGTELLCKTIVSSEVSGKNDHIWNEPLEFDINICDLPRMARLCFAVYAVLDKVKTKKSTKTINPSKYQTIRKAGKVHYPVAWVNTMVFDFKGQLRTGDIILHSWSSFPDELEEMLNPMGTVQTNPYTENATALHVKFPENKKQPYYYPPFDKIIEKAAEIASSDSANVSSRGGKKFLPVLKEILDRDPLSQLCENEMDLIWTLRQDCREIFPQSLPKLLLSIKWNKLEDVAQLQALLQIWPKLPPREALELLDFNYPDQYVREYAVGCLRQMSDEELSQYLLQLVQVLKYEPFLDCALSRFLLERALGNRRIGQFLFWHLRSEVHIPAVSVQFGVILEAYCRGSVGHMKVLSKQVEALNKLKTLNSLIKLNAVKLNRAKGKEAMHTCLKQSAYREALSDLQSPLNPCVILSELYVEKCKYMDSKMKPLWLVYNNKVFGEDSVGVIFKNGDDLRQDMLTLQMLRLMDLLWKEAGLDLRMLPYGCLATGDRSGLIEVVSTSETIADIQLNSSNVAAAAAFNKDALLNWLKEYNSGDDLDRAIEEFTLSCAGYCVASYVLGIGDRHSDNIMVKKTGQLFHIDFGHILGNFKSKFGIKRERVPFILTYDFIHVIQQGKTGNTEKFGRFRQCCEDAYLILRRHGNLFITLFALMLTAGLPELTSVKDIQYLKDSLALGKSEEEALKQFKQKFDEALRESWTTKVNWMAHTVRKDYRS
Chain of p110β/p85α (P27986 2-724 partner): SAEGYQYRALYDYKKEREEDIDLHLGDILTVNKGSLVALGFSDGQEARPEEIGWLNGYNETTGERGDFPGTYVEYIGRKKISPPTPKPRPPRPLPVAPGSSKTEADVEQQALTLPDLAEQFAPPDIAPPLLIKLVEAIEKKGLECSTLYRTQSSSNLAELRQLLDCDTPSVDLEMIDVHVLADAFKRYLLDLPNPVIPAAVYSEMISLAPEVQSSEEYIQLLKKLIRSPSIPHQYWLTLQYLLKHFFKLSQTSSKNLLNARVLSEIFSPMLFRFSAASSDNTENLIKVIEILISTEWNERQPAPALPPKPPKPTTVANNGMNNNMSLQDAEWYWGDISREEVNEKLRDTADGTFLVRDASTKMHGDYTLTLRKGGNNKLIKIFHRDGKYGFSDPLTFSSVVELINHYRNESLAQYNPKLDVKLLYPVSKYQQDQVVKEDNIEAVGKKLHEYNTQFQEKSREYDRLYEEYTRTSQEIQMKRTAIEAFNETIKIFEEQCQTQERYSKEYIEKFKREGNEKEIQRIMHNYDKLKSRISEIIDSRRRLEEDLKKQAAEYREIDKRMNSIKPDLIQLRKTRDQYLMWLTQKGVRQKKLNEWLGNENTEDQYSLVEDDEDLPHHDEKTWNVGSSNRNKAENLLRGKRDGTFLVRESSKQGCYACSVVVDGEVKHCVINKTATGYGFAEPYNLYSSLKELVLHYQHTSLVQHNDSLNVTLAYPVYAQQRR
In short: (§1)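 ADP production was read by fluorescence polarization immunoassay (60 min detection step) after an 80 min room-temperature reaction of p110/p85α enzyme, compound in 2% DMSO, and PIP2/ATP solution (30 uM/10 uM as added) in HEPES buffer with MgCl2 and DTT. IC50s came from inhibition versus the DMSO control.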

[3] = target: p110δ/p85α (Homo sapiens, UniProt O00329); experiment: Transcreener KINASE Assay, kinase inhibition of p110δ/p85α; details: for PI3Kδ IH % @ 1 uM: 1 uM test compound; for IC50: read-out: PI3Kδ IC50
In short: as §1

[4] = target: p110γ (Homo sapiens, UniProt P48736); experiment: Transcreener KINASE Assay, kinase inhibition of p110γ; details: for PI3Kγ IH % @ 1 uM: 1 uM test compound; for IC50: read-out: PI3Kγ IC50
Chain of p110γ (P48736 whole entry, canonical isoform): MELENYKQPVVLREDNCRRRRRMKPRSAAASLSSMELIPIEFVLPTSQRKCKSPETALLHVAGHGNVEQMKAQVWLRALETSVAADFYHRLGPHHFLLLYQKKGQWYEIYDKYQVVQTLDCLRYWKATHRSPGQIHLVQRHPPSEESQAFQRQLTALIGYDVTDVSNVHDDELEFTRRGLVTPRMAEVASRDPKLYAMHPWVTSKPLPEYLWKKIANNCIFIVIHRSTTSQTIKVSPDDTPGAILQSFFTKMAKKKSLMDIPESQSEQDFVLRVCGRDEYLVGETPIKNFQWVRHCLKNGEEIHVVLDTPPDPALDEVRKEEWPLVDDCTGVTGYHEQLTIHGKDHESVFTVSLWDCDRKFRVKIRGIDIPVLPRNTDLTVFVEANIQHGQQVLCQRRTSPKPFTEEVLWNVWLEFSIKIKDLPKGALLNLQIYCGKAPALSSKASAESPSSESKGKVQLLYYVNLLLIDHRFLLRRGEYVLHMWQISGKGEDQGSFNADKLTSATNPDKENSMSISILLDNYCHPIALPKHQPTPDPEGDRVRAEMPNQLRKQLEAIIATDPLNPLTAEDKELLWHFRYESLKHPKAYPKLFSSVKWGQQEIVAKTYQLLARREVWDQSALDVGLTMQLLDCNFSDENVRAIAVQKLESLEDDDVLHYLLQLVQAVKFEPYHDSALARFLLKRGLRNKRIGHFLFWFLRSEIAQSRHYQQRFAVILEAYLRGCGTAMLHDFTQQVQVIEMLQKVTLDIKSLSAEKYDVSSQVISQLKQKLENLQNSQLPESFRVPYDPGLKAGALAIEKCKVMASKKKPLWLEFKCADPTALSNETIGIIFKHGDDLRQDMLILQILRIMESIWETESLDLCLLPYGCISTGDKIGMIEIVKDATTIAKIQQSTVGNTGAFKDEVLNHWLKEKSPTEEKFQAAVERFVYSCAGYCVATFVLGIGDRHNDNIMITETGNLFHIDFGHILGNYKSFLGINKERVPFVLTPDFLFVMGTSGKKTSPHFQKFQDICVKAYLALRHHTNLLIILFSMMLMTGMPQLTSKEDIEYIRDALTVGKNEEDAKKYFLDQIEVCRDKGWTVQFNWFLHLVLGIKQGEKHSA
In short: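 ADP-detecting fluorescence polarization immunoassay run as two-step endpoint: kinase reaction for 80 min, detection for 60 min, both at room temperature. Enzymes are recombinant p110 isoforms with p85α, except p110γ. IC50s derived from fitted inhibition curves.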

Chain of p110α/p85α (P42336 whole entry): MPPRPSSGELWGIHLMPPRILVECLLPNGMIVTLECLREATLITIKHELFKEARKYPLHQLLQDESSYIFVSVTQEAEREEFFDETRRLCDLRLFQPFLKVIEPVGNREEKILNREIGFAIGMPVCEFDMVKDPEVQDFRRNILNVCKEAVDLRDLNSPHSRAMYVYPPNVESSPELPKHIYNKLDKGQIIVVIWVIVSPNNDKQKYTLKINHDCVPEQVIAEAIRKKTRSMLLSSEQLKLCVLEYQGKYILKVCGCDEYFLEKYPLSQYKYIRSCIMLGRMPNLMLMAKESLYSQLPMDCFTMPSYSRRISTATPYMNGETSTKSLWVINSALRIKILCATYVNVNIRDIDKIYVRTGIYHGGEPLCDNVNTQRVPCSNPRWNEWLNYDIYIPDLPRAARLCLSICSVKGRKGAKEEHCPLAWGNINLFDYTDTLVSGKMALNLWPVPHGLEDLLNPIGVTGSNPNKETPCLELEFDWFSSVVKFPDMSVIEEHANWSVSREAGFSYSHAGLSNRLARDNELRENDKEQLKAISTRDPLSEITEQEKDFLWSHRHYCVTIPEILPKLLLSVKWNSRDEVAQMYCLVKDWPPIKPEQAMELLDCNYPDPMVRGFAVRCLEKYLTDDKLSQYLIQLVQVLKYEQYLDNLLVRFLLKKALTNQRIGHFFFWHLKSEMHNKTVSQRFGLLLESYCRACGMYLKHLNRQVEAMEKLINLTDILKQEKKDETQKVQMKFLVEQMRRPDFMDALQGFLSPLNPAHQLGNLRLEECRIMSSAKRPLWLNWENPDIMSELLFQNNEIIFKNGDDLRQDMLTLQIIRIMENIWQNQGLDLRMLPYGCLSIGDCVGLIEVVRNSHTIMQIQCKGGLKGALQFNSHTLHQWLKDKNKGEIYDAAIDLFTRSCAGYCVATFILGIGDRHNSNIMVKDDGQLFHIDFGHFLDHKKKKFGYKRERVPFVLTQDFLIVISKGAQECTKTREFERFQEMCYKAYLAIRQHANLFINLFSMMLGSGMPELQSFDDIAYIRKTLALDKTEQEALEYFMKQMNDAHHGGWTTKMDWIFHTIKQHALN
Chain of p110α/p85α (P27986 whole entry partner): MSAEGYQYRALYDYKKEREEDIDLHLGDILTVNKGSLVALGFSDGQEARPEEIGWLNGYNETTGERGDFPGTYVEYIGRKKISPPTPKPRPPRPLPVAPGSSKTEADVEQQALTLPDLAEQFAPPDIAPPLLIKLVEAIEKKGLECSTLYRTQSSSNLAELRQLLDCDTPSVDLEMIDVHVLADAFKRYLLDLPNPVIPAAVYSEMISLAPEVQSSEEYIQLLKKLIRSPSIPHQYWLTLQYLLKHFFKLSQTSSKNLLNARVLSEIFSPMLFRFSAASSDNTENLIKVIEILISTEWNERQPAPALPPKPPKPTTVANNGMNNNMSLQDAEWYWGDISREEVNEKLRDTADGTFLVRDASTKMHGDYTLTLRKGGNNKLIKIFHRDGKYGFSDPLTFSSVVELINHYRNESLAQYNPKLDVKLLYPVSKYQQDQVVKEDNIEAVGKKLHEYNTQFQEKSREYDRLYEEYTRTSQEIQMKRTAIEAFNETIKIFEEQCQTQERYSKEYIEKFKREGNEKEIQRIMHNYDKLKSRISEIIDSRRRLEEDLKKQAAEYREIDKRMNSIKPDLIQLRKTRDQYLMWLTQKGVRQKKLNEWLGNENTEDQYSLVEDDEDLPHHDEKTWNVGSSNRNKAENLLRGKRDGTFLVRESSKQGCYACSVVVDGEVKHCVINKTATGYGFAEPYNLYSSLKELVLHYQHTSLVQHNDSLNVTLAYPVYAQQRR

Compound | PI3Kα IH % @ 1 uM [1] | PI3Kβ IH % @ 1 uM [2] | PI3Kδ IH % @ 1 uM [3] | IC50 [3] | PI3Kγ IH % @ 1 uM [4] | IC50 [4] | IC50 [2] | IC50 [1]
N#Cc1c[nH]c2ncnc(N3C[C@@H](F)C[C@H]3c3nn4ccc(Cl)c4c(=O)n3-c3cccc(F)c3)c12 [Compound 213] | 65.2% | 85.9% | >100% | 1 nM | >100% | 7 nM | 88 nM | –
CC(Nc1ncnc2[nH]cnc12)c1cc2ccc(Cl)n2c(=O)n1-c1cccc(F)c1 (stereo not drawn) [Compound 127] | 7.0% | 71.3% | 99.2% | 5 nM | >100% | 57 nM | 307 nM | –
COc1cccc(-n2c([C@@H]3CCN3c3ncnc(N)c3C#N)nn3ccc(Cl)c3c2=O)c1 [Compound 35] | −6.6% | 24.7% | 94.1% | 57 nM | 61.2% | – | – | –
CC(C)Cn1c([C@@H]2CCCN2c2ncnc3[nH]cc(C#N)c23)nn2ccc(Cl)c2c1=O [Compound 64] | 32.6% | 78.8% | 98.9% | 3 nM | 89.9% | 41 nM | 251 nM | –
CCC(Nc1ncnc(N)c1C#N)c1cn2ccc(Cl)c2c(=O)n1-c1cccc(F)c1 (stereo not drawn) [Compound 86] | 17.8% | 86.5% | 99.0% | 2 nM | 76.4% | 139 nM | 172 nM | –
N#Cc1c[nH]c2ncnc(N3CCC[C@H]3c3nn4ccc(Cl)c4c(=O)n3Cc3cccnc3)c12 [Compound 66] | 75.6% | 63.6% | >100% | 12 nM | >100% | 14 nM | – | –
Cc1ccn2nc([C@@H]3CCCN3c3ncnc4[nH]cnc34)n(-c3ccccc3)c(=O)c12 [Compound 43] | 35.1% | 66.0% | >100% | 2 nM | 96.6% | 19 nM | – | –
O=c1c2c(Cl)ccn2nc([C@@H]2CCCN2c2ncnc3[nH]cnc23)n1-c1ccccc1 [Compound 26] | 20.3% | 88.7% | >100% | 2 nM | 93.3% | – | 91 nM | –
N#Cc1c[nH]c2ncnc(N3CC[C@H]3c3nn4ccc(Cl)c4c(=O)n3-c3ccccc3)c12 [Compound 28] | −0.3% | 49.9% | >100% | 14 nM | 92.2% | 32 nM | – | –
N#Cc1c(N)ncnc1N1CC[C@H]1c1nn2ccc(Cl)c2c(=O)n1-c1ccccc1 [Compound 31] | −17.7% | 35.3% | >100% | 16 nM | 81.5% | 153 nM | – | –

Further lines, results first:

PI3Kα IH % @ 1 uM [1] | PI3Kβ IH % @ 1 uM [2] | PI3Kδ IH % @ 1 uM [3] | IC50 [3] | PI3Kγ IH % @ 1 uM [4] | IC50 [4] | IC50 [2] | IC50 [1] | Compound
−2.5% | 12.4% | 96.8% | 29 nM | 84.6% | 203 nM | – | – | COc1cccc(-n2c([C@@H]3CCN3c3ncnc4[nH]cc(C#N)c34)nn3ccc(Cl)c3c2=O)c1 [Compound 34]
– | 38.6% | 99.4% | 6 nM | – | – | 644 nM | 2940 nM | CC(=O)c1cnc(N)nc1N1CC[C@H]1c1nn2ccc(Cl)c2c(=O)n1-c1ccccc1 [Compound 299]
52.6% | 50.6% | >100% | 14 nM | >100% | 78 nM | – | – | N#Cc1c[nH]c2ncnc(N3CCC[C@H]3c3nn4ccc(Cl)c4c(=O)n3Cc3ccccn3)c12 [Compound 65]
46.7% | 74.3% | >100% | 1 nM | 95.2% | 5 nM | 302 nM | – | Cc1ccn2nc([C@@H]3CCCN3c3nc(N)nc4[nH]cnc34)n(-c3ccccc3)c(=O)c12 [Compound 44]
6.4% | 60.9% | 99.1% | – | 90.8% | 35 nM | – | – | COc1cccc(-n2c([C@@H]3CCCN3c3ncnc4[nH]cnc34)nn3ccc(Cl)c3c2=O)c1 [Compound 36]
31.8% | 65.2% | >100% | 3 nM | 95.7% | 20 nM | – | – | Cc1ccn2cc(C(C)Nc3ncnc4[nH]cnc34)n(-c3ccccc3)c(=O)c12 (stereo not drawn) [Compound 92]
−20.5% | 51.3% | >100% | 9 nM | 74.1% | 94 nM | – | – | Nc1ncnc(N2CC[C@H]2c2nn3ccc(Cl)c3c(=O)n2-c2ccccc2)c1Cl [Compound 30]
27.4% | 74.7% | >100% | 1 nM | 87.8% | 30 nM | 311 nM | – | CCC(Nc1ncnc2[nH]cnc12)c1cn2ccc(Cl)c2c(=O)n1-c1cccc(F)c1 (stereo not drawn) [Compound 85, 3-(1-(9H-purin-6-ylamino)propyl)-8-chloro-2-(3-fluorophenyl)pyrrolo[1,2-a]pyrazin-1(2H)-one]
– | >100% | 94% | 7 nM | >100% | 1 nM | 181 nM | 372 nM | CC(=O)c1cnc(N)nc1N1C[C@H](C)[C@H]1c1nn2ccc(Cl)c2c(=O)n1-c1ccc(F)cc1 [Compound 206]
38.4% | 80.3% | >100% | 3 nM | >100% | – | 170 nM | – | CC(=O)c1c[nH]c2ncnc(N3C[C@@H](F)C[C@H]3c3nn4ccc(Cl)c4c(=O)n3-c3ccccc3)c12 [Compound 268]
−3.5% | 59.3% | >100% | 4 nM | 75.9% | 32 nM | – | – | CC(Nc1nc(N)ncc1C(F)(F)F)c1cn2ccc(Cl)c2c(=O)n1-c1cccc(F)c1 (stereo not drawn) [Compound 84]
−10.6% | 28.0% | 91.5% | – | 58.6% | – | – | – | N#Cc1c[nH]c2ncnc(N3CC[C@H]3c3nn4cccc4c(=O)n3-c3ccccc3)c12 [Compound 6]
41.6% | 92.1% | 99.1% | 3 nM | >100% | 25 nM | 220 nM | – | N#Cc1c[nH]c2ncnc(N3C[C@H](O)C[C@H]3c3nn4ccc(Cl)c4c(=O)n3-c3ccccc3)c12 [Compound 70, 4-((2S,4R)-2-(5-chloro-4-oxo-3-phenyl-3,4-dihydropyrrolo[2,1-f][1,2,4]triazin-2-yl)-4-hydroxypyrrolidin-1-yl)-7H-pyrrolo[2,3-d]pyrimidine-5-carbonitrile]

— patent US20150307520A1, “NOVEL HETEROARYL AND HETEROCYCLE COMPOUNDS, COMPOSITIONS AND METHODS THEREOF” (HUTCHISON MEDIPHARMA LIMITED, priority 2012, published 2015)
